Where two headings read alike, the source gives them in different places.
What was measured:
[1] = test system: U2932 cells; test: Real Time Glo viability assay, Betalutin and cell cycle inhibitors (Example 2); type: cell-based, human; conditions: for viability at 0.1 µM / viability at 1 µM: Homo sapiens; for viability at 0.1 µM: U2932, U2932, drug 100 nM
Description: (§1) Cells were split twice a week 1:3-1:5 depending on cell density. […] Real Time Glo was purchased from Promega. 384 well plates were purchased from Greiner Bio-One.
(§2) Cells were treated for 18-20 h with Betalutin at a final concentration of 1 μg/ml and 2 μg/ml in 6-well cell culture plates with shaking. After treatment, PBS was added to the cells, and the cells pelleted. Cells were first resuspended in 1 ml PBS, then washed twice in PBS and finally diluted in growth medium at the desired concentration. All cell lines were treated at a cell concentration of 2.5*10^6 cells/ml.
(§3) Regardless of cell number the culturing volume was 25 μl. For Real Time Glo, the Cell Viability Substrate and NanoLuc® Enzyme were diluted 1:500 in growth medium, and 25 μL of diluted reagents added to each well. All reagents were equilibrated to 37° C. Cells were incubated with the reaction mix for 1 h at 37° C. before the first measurement of luminescence. Measurements were repeated as often as required within 72 h after adding the reagents. Digitonin was added to cells at 200 μg/ml to record background luminescence of dead cells. A Tecan SPARK 10M plate reader was used to measure luminescence, with an integration time set to 1 sec.
(§4) Growth inhibition was calculated by dividing the luminescence signal of the treated cells by the luminescence signal of the control cells for each day of measurement after start of treatment [Table 1].
(§5) To evaluate effects of the drugs alone [(−)Betalutin] and their combination with Betalutin [(+)Betalutin], we calculated the Z-score for each sample (ZdrugX=1-(+)BetalutindrugX/(−)BetalutindrugX), where (+)BetalutindrugX and (−) BetalutindrugX are the measured luminescence intensity values for drug X in presence and absence of Betalutin, respectively. The calculation of Z-score values separately for each plate enabled comparison of results across plates, despite variations between the plates in overall signal intensity.

[2] = test system: RIVA cells; test: as above; type: cell-based, human; conditions: for viability at 0.1 µM / viability at 1 µM: Homo sapiens, read-out: Growth inhibition (signal treated/control; 1 = no change); for viability at 0.1 µM: drug 100 nM
Description: as §1, §2, §3, §4, §5

[3] = (+)Betalutin, Dy3, read-out: Growth inhibition (signal treated/control; 1 = no change)
[4] = (+)Betalutin, Dy4, read-out: Growth inhibition (signal treated/control; 1 = no change)
[5] = (+)Betalutin, Dy5, read-out: Growth inhibition (signal treated/control; 1 = no change)
[6] = (+)Betalutin, Dy6, read-out: Growth inhibition (signal treated/control; 1 = no change)
[7] = (−)Betalutin, Dy3, read-out: Growth inhibition (signal treated/control; 1 = no change)
[8] = (−)Betalutin, Dy4, read-out: Growth inhibition (signal treated/control; 1 = no change)
[9] = (−)Betalutin, Dy5, read-out: Growth inhibition (signal treated/control; 1 = no change)
[10] = (−)Betalutin, Dy6, read-out: Growth inhibition (signal treated/control; 1 = no change)
[11] = U2932, U2932, drug 1 μM, (+)Betalutin, Dy3, read-out: Growth inhibition (signal treated/control; 1 = no change)
[12] = U2932, U2932, drug 1 μM, (+)Betalutin, Dy4, read-out: Growth inhibition (signal treated/control; 1 = no change)
[13] = U2932, U2932, drug 1 μM, (+)Betalutin, Dy5, read-out: Growth inhibition (signal treated/control; 1 = no change)
[14] = U2932, U2932, drug 1 μM, (+)Betalutin, Dy6, read-out: Growth inhibition (signal treated/control; 1 = no change)
[15] = U2932, U2932, drug 1 μM, (−)Betalutin, Dy3, read-out: Growth inhibition (signal treated/control; 1 = no change)
[16] = U2932, U2932, drug 1 μM, (−)Betalutin, Dy4, read-out: Growth inhibition (signal treated/control; 1 = no change)
[17] = U2932, U2932, drug 1 μM, (−)Betalutin, Dy5, read-out: Growth inhibition (signal treated/control; 1 = no change)
[18] = U2932, U2932, drug 1 μM, (−)Betalutin, Dy6, read-out: Growth inhibition (signal treated/control; 1 = no change)
[19] = RIVA, drug 1 μM, +Betalutin, Dy3
[20] = RIVA, drug 1 μM, +Betalutin, Dy4
[21] = RIVA, drug 1 μM, +Betalutin, Dy5
[22] = RIVA, drug 1 μM, +Betalutin, Dy6
[23] = RIVA, drug 1 μM, −Betalutin, Dy3
[24] = RIVA, drug 1 μM, −Betalutin, Dy4
[25] = RIVA, drug 1 μM, −Betalutin, Dy5
[26] = RIVA, drug 1 μM, −Betalutin, Dy6

Row | Compound | viability at 0.1 µM [1, 3] [%] | viability at 0.1 µM [1, 4] [%] | viability at 0.1 µM [1, 5] [%] | viability at 0.1 µM [1, 6] [%] | viability at 0.1 µM [1, 7] [%] | viability at 0.1 µM [1, 8] [%] | viability at 0.1 µM [1, 9] [%] | viability at 0.1 µM [1, 10] [%] | viability at 1 µM [1, 11] [%] | viability at 1 µM [1, 12] [%] | viability at 1 µM [1, 13] [%] | viability at 1 µM [1, 14] [%] | viability at 1 µM [1, 15] [%] | viability at 1 µM [1, 16] [%] | viability at 1 µM [1, 17] [%] | viability at 1 µM [1, 18] [%] | Synergy for the combination with Betalutin ([1]; U2932, drug 100 nM) | Synergy for the combination with Betalutin ([1]; U2932, drug 1 μM) | viability at 0.1 µM ([2]; RIVA, +Betalutin, Dy3) [%] | viability at 0.1 µM ([2]; RIVA, +Betalutin, Dy4) [%] | further results
1 | Cc1csc(-c2nnc(Nc3ccc(Oc4ncccc4-c4ccnc(N)n4)cc3)c3ccccc23)c1 [AMG 900] | 89 | 78 | 77 | 52 | 96 | 97 | 92 | 72 | 77 | 77 | 80 | 58 | 83 | 96 | 96 | 81 | Bliss + Z-score | Z-score | 22 | 16 | viability at 0.1 µM ([2]; RIVA, +Betalutin, Dy5): 9%; viability at 0.1 µM ([2]; RIVA, +Betalutin, Dy6): 8%; viability at 0.1 µM ([2]; RIVA, −Betalutin, Dy3): 82%; viability at 0.1 µM ([2]; RIVA, −Betalutin, Dy4): 85%; viability at 0.1 µM ([2]; RIVA, −Betalutin, Dy5): 65%; viability at 0.1 µM ([2]; RIVA, −Betalutin, Dy6): 51%; viability at 1 µM [2, 19]: 9%; viability at 1 µM [2, 20]: 8%; viability at 1 µM [2, 21]: 5%; viability at 1 µM [2, 22]: 4%; viability at 1 µM [2, 23]: 60%; viability at 1 µM [2, 24]: 57%; viability at 1 µM [2, 25]: 49%; viability at 1 µM [2, 26]: 40%
2 | NC(=O)Nc1cc(-c2cccc(F)c2)sc1C(=O)N[C@H]1CCCNC1 [AZD7762] | – | – | – | – | – | – | – | – | – | – | – | – | – | – | – | – | Bliss + Z-score | – | – | – | viability at 1 µM ([1]; U2932, read-out: Growth inhibition (signal treated/control; 1 = no change)): 4%; Growth inhibition (signal treated/control; 1 = no change) ([1]; human): 0.03; viability at 1 µM [2]: 3%; Growth inhibition (signal treated/control; 1 = no change) ([2]; human): 0.34
3 | Cc1nc(N)sc1-c1ccnc(Nc2ccc(N3CCOCC3)cc2)n1 [CYC116] | 92 | 94 | 80 | 75 | 94 | 97 | 106 | 121 | 72 | 82 | 74 | 56 | 85 | 89 | 83 | 61 | Bliss + Z-score | Z-score | 13 | 10 | viability at 0.1 µM ([2]; RIVA, +Betalutin, Dy5): 6%; viability at 0.1 µM ([2]; RIVA, +Betalutin, Dy6): 6%; viability at 0.1 µM ([2]; RIVA, −Betalutin, Dy3): 93%; viability at 0.1 µM ([2]; RIVA, −Betalutin, Dy4): 94%; viability at 0.1 µM ([2]; RIVA, −Betalutin, Dy5): 114%; viability at 0.1 µM ([2]; RIVA, −Betalutin, Dy6): 92%; viability at 1 µM [2, 19]: 22%; viability at 1 µM [2, 20]: 20%; viability at 1 µM [2, 21]: 14%; viability at 1 µM [2, 22]: 14%; viability at 1 µM [2, 23]: 62%; viability at 1 µM [2, 24]: 78%; viability at 1 µM [2, 25]: 70%; viability at 1 µM [2, 26]: 65%

— patent US20210106703A1, “RADIOIMMUNOCONJUGATES IN COMBINATION WITH OTHER DRUGS AS TREATMENT AGAINST NHL” (Nordic Nanovector ASA, priority 2017, published 2021)
